Measured values reported in EPA's ToxValDB 9.5 (doi:10.2903/j.efsa.2010.1856).
≈ marks a conversion by molar mass, not a printed value.

Columns and labels:
Anatidae = details: short-term; oral; feed; mortality
Apis mellifera = details: acute; duration: 48 hours; oral; unspecified; mortality
Canidae = details: chronic, duration: 1 years, oral, Dog Other
Colinus virginianus = details: reproduction developmental
Coturnix japonica = details: acute, oral, mortality
Daphnia magna = details: chronic/long-term; duration: 21 days; reproduction
Oncorhynchus mykiss = details: mortality
Phasianus sp. = details: acute; oral; unspecified; mortality
Rattus norvegicus = details: chronic; duration: 2 years; histopathology: nonneoplastic
Aphidius rhopalosiphi = test: LR50; higher = less toxic; details: not reported; mortality
Typhlodromus pyri = test: LR50; higher = less toxic; details: not reported; mortality

CC1OC(C)OC(C)OC(C)O1 (stereo not drawn) [2,4,6,8-Tetramethyl-1,3,5,7-tetroxocane]
LD50 (Anas platyrhynchos; acute, oral, unspecified, mortality): 196 mg/kg-day | NOEC (Anas platyrhynchos; reproductive): 175 mg/kg | LC50 (Anatidae): 3450 mg/kg | LD50 (Apis mellifera): > 87.5 µg/piece | NOAEL (Canidae; mortality): 10 mg/kg-day | NOAEL (Canidae; neurology): 30 mg/kg-day | NOEC (Colinus virginianus): 500 mg/kg-day | LC50 (Coturnix japonica; diet): 3460 mg/kg | LD50 (Coturnix japonica): 170 mg/kg-day | NOEC (Daphnia magna): 90 mg/L | LC50 (Oncorhynchus mykiss; acute, duration: 96 hours): 75 µg/mL (≈ 426 µM) | NOEC (Oncorhynchus mykiss; chronic/long-term, duration: 21 days): 37.5 mg/L | LD50 (Phasianus sp.): 262 mg/kg-day | NOAEL (Rattus norvegicus): 2 mg/kg-day | LC50 (Tagia sp.; acute, duration: 14 days, mortality): > 1000 mg/kg | NOEC (Tagia sp.; chronic/long-term, reproduction): 32 mg/kg | LR50 (Aphidius rhopalosiphi): > 350 g/ha | LR50 (Typhlodromus pyri): > 350 g/ha
